Literature values as cited in PubChem BioAssay AID1259409 (Chemical Carcinogenesis Research Information System (CCRIS), 2018).

Test system: rodent chemically induced tumor inhibition, incidence and multiplicity
Assay: CCRIS tumor inhibitor studies
Details: Carcinogen: AZOXYMETHANE, 25843-45-2, Dose [Inhibitor]: 0, Route [Inhibitor]: ORAL, Species: RAT, Strain/Sex: F344/MALE, Promoter: NONE USED

SMILES: CN1C(C(=O)Nc2ccccn2)=C(O)c2ccccc2S1(=O)=O
- tumour outcome (control, treated, inhibition, significance) (150 PPM IN DIET BEGINNING 1 WK POST CARCINOGEN DOSE FOR DURATION OF STUDY (STUDY DURATION: 56 WK), Target Tissue: Type of Lesion: COLON: ADENOMA, Dose [Carcinogen]: 29.6 MG/KG IN NORMAL SALINE ONCE): 11/30 (37%), 9/30 (30%), 19%, not calculated
- tumour outcome (control, treated, inhibition, significance) (150 PPM IN DIET BEGINNING 1 WK POST CARCINOGEN DOSE FOR DURATION OF STUDY (STUDY DURATION: 56 WK), Target Tissue: Type of Lesion: SMALL INTESTINE: ADENOCARCINOMA, Dose [Carcinogen]: 29.6 MG/KG IN NORMAL SALINE ONCE): 10/30 (33%), 8/30 (27%), 20%, not calculated
- tumour outcome (control, treated, inhibition, significance) (150 PPM IN DIET BEGINNING 1 WK POST CARCINOGEN DOSE FOR DURATION OF STUDY (STUDY DURATION: 56 WK), Target Tissue: Type of Lesion: SMALL INTESTINE: ADENOMA, Dose [Carcinogen]: 29.6 MG/KG IN NORMAL SALINE ONCE): 1/30 (3%), 1/30 (3%), 0%, not calculated
- tumour outcome (control, treated, inhibition, significance) (150 PPM IN DIET FOR 29 WK BEGINNING 1 WK POST CARCINOGEN TREATMENT (STUDY DURATION: 32 WK), Target Tissue: Type of Lesion: COLON: ADENOMA, Dose [Carcinogen]: 15 MG/KG BW 1/WK FOR 2 WK): 77%, 33%, 57%, p<0.05
- tumour outcome (control, treated, inhibition, significance) (150 PPM IN DIET FOR 29 WK BEGINNING 1 WK POST CARCINOGEN TREATMENT (STUDY DURATION: 32 WK), Target Tissue: Type of Lesion: COLON: CARCINOMA, Dose [Carcinogen]: 15 MG/KG BW 1/WK FOR 2 WK): 53%, 23%, 57%, p<0.05
- tumour outcome (control, treated, inhibition, significance) (200 PPM IN DIET BEGINNING 1 WK PRIOR TO CARCINOGEN TREATMENT FOR DURATION OF STUDY (STUDY DURATION: 54 WK), Target Tissue: Type of Lesion: COLON: ADENOCARCINOMA, Dose [Carcinogen]: 15 MG/KG/BW 1/WK FOR 2 WK): 58%, 33%, 43%, p<0.05
- tumour outcome (control, treated, inhibition, significance) (200 PPM IN DIET BEGINNING 1 WK PRIOR TO CARCINOGEN TREATMENT FOR DURATION OF STUDY (STUDY DURATION: 54 WK), Target Tissue: Type of Lesion: COLON: ADENOMA., Dose [Carcinogen]: 15 MG/KG/BW 1/WK FOR 2 WK): 6%, 8%, -33%, not calculated
- tumour outcome (control, treated, inhibition, significance) (200 PPM IN DIET BEGINNING PRIOR TO CARCINOGEN DOSE AND CONTINUING FOR DURATION OF STUDY (STUDY DURATION: 54 WK), Target Tissue: Type of Lesion: COLON: ADENOCARCINOMA, Dose [Carcinogen]: 15 MG/KG 1/WK FOR 2 WK): 72%, 33%, 54%, p<0.001
- tumour outcome (control, treated, inhibition, significance) (200 PPM IN DIET BEGINNING PRIOR TO CARCINOGEN DOSE AND CONTINUING FOR DURATION OF STUDY (STUDY DURATION: 54 WK), Target Tissue: Type of Lesion: COLON: ADENOMA, Dose [Carcinogen]: 15 MG/KG 1/WK FOR 2 WK): 14%, 3%, 79%, not calculated
- tumour outcome (control, treated, inhibition, significance) (200 PPM IN DIET BEGINNING PRIOR TO CARCINOGEN DOSE AND CONTINUING FOR DURATION OF STUDY (STUDY DURATION: 54 WK), Target Tissue: Type of Lesion: SMALL INTESTINE: ADENOCARCINOMA, Dose [Carcinogen]: 15 MG/KG 1/WK FOR 2 WK): 50%, 17%, 66%, p<0.01
- tumour outcome (control, treated, inhibition, significance) (200 PPM IN DIET BEGINNING PRIOR TO CARCINOGEN DOSE AND CONTINUING FOR DURATION OF STUDY (STUDY DURATION: 54 WK), Target Tissue: Type of Lesion: SMALL INTESTINE: ADENOMA, Dose [Carcinogen]: 15 MG/KG 1/WK FOR 2 WK): 3%, 0%, 100%, not calculated
- tumour outcome (control, treated, inhibition, significance) (200 PPM IN DIET FOR 56 WK BEGINNING 2 WK PRIOR TO CARCINOGEN TREATMENT (STUDY DURATION: 56 WK), Target Tissue: Type of Lesion: COLON(DISTAL): TUMOR, Dose [Carcinogen]: 15 MG/KG 1/WK FOR 2 WK): 52%, 35%, 33%, p<0.05
- tumour outcome (control, treated, inhibition, significance) (200 PPM IN DIET FOR 56 WK BEGINNING 2 WK PRIOR TO CARCINOGEN TREATMENT (STUDY DURATION: 56 WK), Target Tissue: Type of Lesion: COLON(PROXIMAL): TUMOR, Dose [Carcinogen]: 15 MG/KG 1/WK FOR 2 WK): 38%, 15%, 61%, p<0.01
- tumour outcome (control, treated, inhibition, significance) (200 PPM IN DIET FOR 56 WK BEGINNING 2 WK PRIOR TO CARCINOGEN TREATMENT (STUDY DURATION: 56 WK), Target Tissue: Type of Lesion: SMALL INTESTINE(DISTAL): TUMOR, Dose [Carcinogen]: 15 MG/KG 1/WK FOR 2 WK): 12%, 6%, 50%, not significant
- tumour outcome (control, treated, inhibition, significance) (200 PPM IN DIET FOR 56 WK BEGINNING 2 WK PRIOR TO CARCINOGEN TREATMENT (STUDY DURATION: 56 WK), Target Tissue: Type of Lesion: SMALL INTESTINE(PROXIMAL): TUMOR, Dose [Carcinogen]: 15 MG/KG 1/WK FOR 2 WK): 33%, 11%, 67%, p<0.05
